We go through two compounds from ChEMBL document CHEMBL3632480, “Optimization of an indazole series of selective estrogen receptor degraders: Tumor regression in a tamoxifen-resistant breast cancer xenograft” (Bioorg Med Chem Lett, 2015).

Active and inactive are the calls of the source. No cut-off for these calls is given here.

The test system of series [1] is MCF7. Kind of series: Decrease in estrogen receptor alpha level in human MCF7 cells after 4 hrs by in-cell western assay relative to fulvestrant. In kind it is functional. The settings on record: MCF7, 4 h.
Series [2] deals with MCF7. As to the kind of experiment: Antitumor activity against human MCF7 cells xenografted in tamoxifen-resistant nu/nu mouse model implanted with 17beta-estradiol pellets assessed as tumor regression at 30 mg/kg qd for 4 weeks. In kind it is functional, organism-based. A general note: Xenograft models place foreign cells or tissue in a host animal.
The nature of series [3]: AUC in CD-1 mouse at 10 mg/kg, po. In kind it is ADME, organism-based. Particulars: in vivo.
Series [4] relates to MCF7. As to the kind of experiment: Decrease in estrogen receptor alpha level in human MCF7 cells after 4 hrs by in-cell western assay. Particulars: MCF7, 4 h. The class given is functional, cell-based.
Series [5] can be described thus: Fraction unbound in CD-1 mouse plasma by equilibrium dialysis. In kind it is ADME, cell-free. (Equilibrium dialysis compares concentrations on both sides of a semipermeable membrane.)
Series [6] relates to MCF7. Kind of series: Cytotoxicity against human MCF7 cells assessed as decrease in cell viability after 5 days by celltiterGlo assay. The class given is functional, cell-based. Particulars: MCF7, 120 h. (In general: Cellular ATP, detected with luciferase, serves as a proxy for viable cell number.)
For series [7], the system named is Rattus norvegicus. Kind of series: Decrease in uterine wet weight of CD-IGS rat at 1 mg/kg, po qd followed 15 mins later administration of 0.1 mg/kg, po 17alpha-ethynylestradiol for 3 consecutive days. The class given is functional.

On to `N#Cc1cc(C(F)(F)F)ccc1/C(=C(\c1ccc(/C=C/C(=O)O)cc1)c1ccc2[nH]nc(F)c2c1)C1CCC1`, for which the Emax (as a rule, the size of the effect at its maximum, as opposed to the concentration needed) in series [1] is 94%. The outcome in series [2] was Active. Further, in series [3], the AUC (in general, the area under the concentration-time curve, a measure of exposure) is 14600 ng·h/mL. Also, the EC50 (usually the concentration giving half of the maximal effect) in series [4] is 0.4 nM. The fraction unbound (in general, the share of the substance not bound to proteins or other matrix) in series [5] was 0.014. Also, the IC50 (as a rule, the concentration needed to halve the response being measured) in series [6] came out at 1.2 nM. For the same compound, in series [7], the “inhibition (INH)” value is recorded as 75%.
Take `O=C(O)/C=C/c1ccc(/C(=C(\c2ncc(C(F)(F)F)cc2Cl)C2CCC2)c2ccc3[nH]nc(F)c3c2)cc1`: the maximum response (Emax) in series [1] turned out to be 94%. Also, the outcome in series [2] was Active. In series [3], this compound yielded an AUC of 24300 ng·h/mL. For the same compound, in series [4], the concentration giving a half-maximal response (EC50) came to 1.3 nM. The compound further gave a fraction unbound in series [5] of 0.014. Also, the IC50 in series [6] was determined as 4.4 nM. Besides, in series [7], the “inhibition (INH)” value is reported as 77%.
